In ChEMBL document CHEMBL4800729 (2021):

How the values were obtained:
[1] = target: Receptor tyrosine-protein kinase erbB-2 (Homo sapiens) (UniProt P04626); assay: ErbB2(h) Millipore kinase panel; conditions: Compound concentration 1.0 uM
[2] = target: cGMP-dependent protein kinase 1 (Homo sapiens) (UniProt Q13976); assay: PKG1beta(h) Millipore kinase panel; conditions: Compound concentration 1.0 uM
[3] = target: Histamine H1 receptor (Homo sapiens) (UniProt P35367); conditions: Compound concentration 10.0 uM
[4] = target: Serine/threonine-protein kinase PAK 6 (Homo sapiens) (UniProt Q9NQU5); assay: PAK6(h) Millipore kinase panel; conditions: Compound concentration 1.0 uM
[5] = target: D(2) dopamine receptor (Homo sapiens) (UniProt P14416); conditions: Compound concentration 10.0 uM

Measured: inhibition

Chain of Serine/threonine-protein kinase PAK 6 (Homo sapiens) (Q9NQU5 whole entry, looked up): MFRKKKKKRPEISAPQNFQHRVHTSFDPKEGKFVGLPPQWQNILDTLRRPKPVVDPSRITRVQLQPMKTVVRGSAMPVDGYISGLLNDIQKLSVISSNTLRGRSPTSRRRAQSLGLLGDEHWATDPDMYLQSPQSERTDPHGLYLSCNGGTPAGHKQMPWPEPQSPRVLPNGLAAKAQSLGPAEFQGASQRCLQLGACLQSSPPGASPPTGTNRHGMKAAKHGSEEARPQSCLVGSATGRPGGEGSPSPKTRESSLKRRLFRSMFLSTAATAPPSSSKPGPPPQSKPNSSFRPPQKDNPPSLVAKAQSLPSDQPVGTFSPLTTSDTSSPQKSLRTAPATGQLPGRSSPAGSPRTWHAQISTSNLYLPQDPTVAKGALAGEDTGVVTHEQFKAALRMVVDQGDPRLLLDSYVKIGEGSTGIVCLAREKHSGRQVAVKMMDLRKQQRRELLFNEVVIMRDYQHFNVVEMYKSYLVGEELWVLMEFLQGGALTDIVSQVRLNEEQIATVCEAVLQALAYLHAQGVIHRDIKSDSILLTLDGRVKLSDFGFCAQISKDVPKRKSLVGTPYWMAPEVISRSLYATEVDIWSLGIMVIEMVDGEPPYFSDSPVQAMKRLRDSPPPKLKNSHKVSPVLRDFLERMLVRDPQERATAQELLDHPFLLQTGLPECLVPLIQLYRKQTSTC
Chain of Receptor tyrosine-protein kinase erbB-2 (Homo sapiens) (P04626 whole entry): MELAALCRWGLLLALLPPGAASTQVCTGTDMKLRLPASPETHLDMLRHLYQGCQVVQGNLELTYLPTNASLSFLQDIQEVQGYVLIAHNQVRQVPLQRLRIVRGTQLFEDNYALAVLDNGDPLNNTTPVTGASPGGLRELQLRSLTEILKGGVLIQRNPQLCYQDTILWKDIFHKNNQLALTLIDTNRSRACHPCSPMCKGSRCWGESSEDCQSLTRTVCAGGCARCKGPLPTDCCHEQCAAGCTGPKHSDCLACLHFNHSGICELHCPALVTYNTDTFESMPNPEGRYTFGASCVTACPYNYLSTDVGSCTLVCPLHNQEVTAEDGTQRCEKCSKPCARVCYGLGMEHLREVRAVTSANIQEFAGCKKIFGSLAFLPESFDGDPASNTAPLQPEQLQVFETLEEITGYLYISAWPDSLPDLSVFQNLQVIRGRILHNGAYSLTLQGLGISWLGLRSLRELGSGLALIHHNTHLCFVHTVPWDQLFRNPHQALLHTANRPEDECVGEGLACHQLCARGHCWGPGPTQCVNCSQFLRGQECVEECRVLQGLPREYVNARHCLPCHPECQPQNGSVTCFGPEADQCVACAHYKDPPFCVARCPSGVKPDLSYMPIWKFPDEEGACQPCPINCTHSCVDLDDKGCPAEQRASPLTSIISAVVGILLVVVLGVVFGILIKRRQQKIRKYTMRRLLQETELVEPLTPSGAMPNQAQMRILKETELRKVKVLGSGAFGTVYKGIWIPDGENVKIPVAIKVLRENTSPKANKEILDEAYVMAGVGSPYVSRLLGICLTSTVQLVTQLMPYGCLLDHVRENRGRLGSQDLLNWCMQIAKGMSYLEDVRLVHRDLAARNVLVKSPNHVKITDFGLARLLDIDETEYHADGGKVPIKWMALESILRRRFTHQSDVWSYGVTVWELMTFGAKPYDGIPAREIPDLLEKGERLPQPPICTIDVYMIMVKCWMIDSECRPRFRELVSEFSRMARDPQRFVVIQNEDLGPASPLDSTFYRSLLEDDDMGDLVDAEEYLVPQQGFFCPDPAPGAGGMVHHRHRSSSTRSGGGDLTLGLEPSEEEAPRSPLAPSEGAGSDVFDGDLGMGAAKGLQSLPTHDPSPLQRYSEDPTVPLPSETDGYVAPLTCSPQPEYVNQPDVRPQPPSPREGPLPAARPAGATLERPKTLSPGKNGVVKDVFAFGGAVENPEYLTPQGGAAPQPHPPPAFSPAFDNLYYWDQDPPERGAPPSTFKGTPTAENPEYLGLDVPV
Chain of cGMP-dependent protein kinase 1 (Homo sapiens) (Q13976 whole entry): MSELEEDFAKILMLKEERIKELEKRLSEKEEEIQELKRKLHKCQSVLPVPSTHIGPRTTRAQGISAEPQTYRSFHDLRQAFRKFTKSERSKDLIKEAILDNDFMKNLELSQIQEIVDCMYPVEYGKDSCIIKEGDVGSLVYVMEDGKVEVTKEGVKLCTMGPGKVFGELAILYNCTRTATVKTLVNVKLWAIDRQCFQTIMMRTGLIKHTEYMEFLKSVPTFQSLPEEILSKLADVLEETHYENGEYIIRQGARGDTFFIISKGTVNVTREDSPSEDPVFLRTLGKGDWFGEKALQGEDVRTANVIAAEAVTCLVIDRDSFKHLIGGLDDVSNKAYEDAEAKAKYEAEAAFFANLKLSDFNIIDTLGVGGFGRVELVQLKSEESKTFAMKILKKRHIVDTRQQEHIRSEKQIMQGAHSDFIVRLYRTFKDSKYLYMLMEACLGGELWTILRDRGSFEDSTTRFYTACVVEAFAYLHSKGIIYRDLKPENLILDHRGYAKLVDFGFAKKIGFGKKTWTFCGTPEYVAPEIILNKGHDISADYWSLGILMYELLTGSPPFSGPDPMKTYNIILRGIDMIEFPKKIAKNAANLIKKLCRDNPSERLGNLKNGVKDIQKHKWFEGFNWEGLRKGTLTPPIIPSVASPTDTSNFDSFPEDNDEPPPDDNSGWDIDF
Chain of Histamine H1 receptor (Homo sapiens) (P35367 whole entry): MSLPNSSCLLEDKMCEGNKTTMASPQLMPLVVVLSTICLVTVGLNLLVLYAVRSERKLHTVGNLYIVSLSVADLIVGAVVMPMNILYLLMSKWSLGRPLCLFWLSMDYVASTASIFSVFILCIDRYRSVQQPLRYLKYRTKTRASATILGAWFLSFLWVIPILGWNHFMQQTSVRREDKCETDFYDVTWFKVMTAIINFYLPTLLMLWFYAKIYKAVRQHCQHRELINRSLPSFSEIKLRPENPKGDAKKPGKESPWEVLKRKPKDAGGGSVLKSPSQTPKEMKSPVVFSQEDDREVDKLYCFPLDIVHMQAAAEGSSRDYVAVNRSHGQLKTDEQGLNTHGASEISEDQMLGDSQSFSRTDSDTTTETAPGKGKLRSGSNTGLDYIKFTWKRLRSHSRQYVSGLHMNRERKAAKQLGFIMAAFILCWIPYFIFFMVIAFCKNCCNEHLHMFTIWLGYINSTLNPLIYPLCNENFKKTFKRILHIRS
Chain of D(2) dopamine receptor (Homo sapiens) (P14416 whole entry): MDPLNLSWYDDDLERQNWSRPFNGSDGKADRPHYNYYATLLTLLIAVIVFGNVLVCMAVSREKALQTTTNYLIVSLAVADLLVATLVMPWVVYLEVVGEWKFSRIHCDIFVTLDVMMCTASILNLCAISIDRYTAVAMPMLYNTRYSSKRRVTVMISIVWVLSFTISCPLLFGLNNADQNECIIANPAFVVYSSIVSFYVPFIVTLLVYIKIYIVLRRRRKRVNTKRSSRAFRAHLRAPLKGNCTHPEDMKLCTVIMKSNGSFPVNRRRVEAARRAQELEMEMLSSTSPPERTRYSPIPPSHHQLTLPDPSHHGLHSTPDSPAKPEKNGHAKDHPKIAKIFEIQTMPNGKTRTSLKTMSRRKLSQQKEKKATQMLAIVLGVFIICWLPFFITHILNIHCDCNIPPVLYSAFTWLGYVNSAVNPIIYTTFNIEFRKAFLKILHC

CC[C@@H](Nc1c(C#N)c(-c2ccc(-c3cccc(C)c3F)cc2)nc2cnccc12)C(=O)O [BAY-091]
inactive: [1] 8.53% | [2] 8.22% | [3] 27% | [4] -5.79% | [5] 10%
